Several values for one entry are separate records, joined by “and”; a condition that tells them apart may be missing. Equal entries are not always repeated. Where two headings read alike, the source gives them in different places.
Tests used:
[1] = tested on: CML-CP with T315I mutation; test: Phase I dose escalation and dose expansion clinical trial: efficacy in CML-CP subjects with T315I mutation; type: in vivo, humans
Source text: This study is a single-arm, open-label, dose-escalation and dose-expansion Phase I clinical trial.
The dose-escalation phase of this trial consists of about 8 dose groups, with oral administration under fasting conditions. Subjects in all dose groups will receive a single dose on Day 1 (D1), followed by pharmacokinetic (PK) and tolerability observations. […] After entering the multiple-dose period, subjects in the first dose group will initially receive twice-daily (BID) dosing (if PK data from the single-dose period are available, the dosing frequency during the multiple-dose period may be adjusted based on the PK data). The dosing frequency for subjects in subsequent dose groups after entering the multiple-dose period will be determined based on available PK and tolerability data. Throughout the trial, dosing frequency for all subjects may be adjusted based on continuously updated safety and PK data.
A continuous reassessment method (CRM) based on the principle of the escalation with overdose control (EWOC) design will be used to recommend the next specific dose for each dose escalation, thereby completing dose escalation and determining the maximum tolerated dose (MTD). If both the investigator and sponsor believe that higher dose groups may offer better efficacy and manageable safety, the EWOC-based CRM method may be used to explore higher doses. All enrolled subjects will receive long-term treatment with the test drug and undergo evaluations for safety, tolerability, and preliminary efficacy.
After obtaining certain research data from the dose-escalation phase, the investigator may comprehensively consider safety, efficacy, and other information to decide whether to enroll additional subjects at the MTD and/or lower dose levels to determine the recommended Phase II dose (RP2D). Two to four suitable dosing regimens will be selected for expansion in the target population (including subjects enrolled at the target dose levels during the escalation phase).
A total of 8 dose groups were established: 10 mg bid, 20 mg bid, 40 mg bid, 80 mg bid, 40 mg qd, 80 mg qd, 160 mg qd, and 240 mg qd.
The dose expansion phase was conducted in the following 3 cohorts: • Cohort 1: Subjects with chronic phase (CP) chronic myeloid leukemia (CML) who had previously received at least ≥2 different TKIs and were T315I-negative. A total of 3 dose groups were established: 40 mg qd, 80 mg qd, and 240 mg qd; • Cohort 2: Subjects with chronic phase (CP) chronic myeloid leukemia (CML) who have previously received ≥1 TKI and were T315I-positive. A total of 2 dose groups were established: 40 mg qd and 240 mg qd; • Cohort 3: Subjects with accelerated phase (AP) chronic myeloid leukemia (CML) who have previously received ≥1 TKI, regardless of T315I positivity. A total of 1 dose group was established: 240 mg qd.

[2] = Study of blood-brain ratio after single oral dose; type: in vivo; details: male SD rats
Description: A total of 15 male SD rats (3 per time point) were administered a single oral dose of Compound A via oral gavage at 50 mg/kg, with the vehicle being 0.5% sodium carboxymethyl cellulose (CMC-Na). The animals were not fasted. Whole blood, cerebrospinal fluid, and brain tissue were collected at 0.5, 2, 4, 8, and 24 hours post-dose. Whole blood samples (about 0.3 mL) were collected via puncture of the jugular venous sinus and transferred to dipotassium ethylenediaminetetraacetate (K2EDTA) anticoagulant tubes, mixed thoroughly, placed on wet ice, and centrifuged within 30 minutes for 5 minutes (6000 rpm, 4°C) to obtain plasma. Cerebrospinal fluid (about 0.10 mL) was collected via puncture of the cerebellomedullary cistern and placed in collection tubes. Brain tissue samples were rinsed with saline, dried with filter paper, blood vessels were removed, and the weight was weighed and recorded. Brain tissue was homogenized with 9 times its weight of homogenization buffer (30% MeOH, containing 0.2% FA/70% 10 mM PBS). All samples were stored in a freezer at -80°C or lower until LC-MS analysis. PK parameters were calculated using the non-compartmental model in WinNonlin and the compound concentrations in each matrix.

[3] = CML-CP subjects with T315I mutation, all doses, 16 evaluable, as of August 24, 2023
[4] = CML-CP subjects with T315I mutation, as of August 24, 2023
[5] = CML-CP subjects with T315I mutation, as of June 2, 2024
[6] = CML-CP with T315I mutation, 10 mg BID, 0 evaluable subjects, as of August 24, 2023
[7] = CML-CP with T315I mutation, 20 mg BID, 1 evaluable subject, as of August 24, 2023
[8] = CML-CP with T315I mutation, 40 mg BID, 1 evaluable subject, as of August 24, 2023
[9] = CML-CP with T315I mutation, 40 mg QD, 2 evaluable subjects, as of August 24, 2023
[10] = CML-CP with T315I mutation, 40 mg/day Total, 3 evaluable subjects, as of August 24, 2023
[11] = CML-CP with T315I mutation, 80 mg BID, 1 evaluable subject, as of August 24, 2023
[12] = CML-CP with T315I mutation, 80 mg QD, 0 evaluable subjects, as of August 24, 2023
[13] = CML-CP with T315I mutation, 80 mg/day Total, 1 evaluable subject, as of August 24, 2023
[14] = CML-CP with T315I mutation, 160 mg QD, 1 evaluable subject, as of August 24, 2023
[15] = CML-CP with T315I mutation, 160 mg/day Total, 2 evaluable subjects, as of August 24, 2023
[16] = CML-CP with T315I mutation, 240 mg QD, 10 evaluable subjects, as of August 24, 2023
[17] = CML-CP with T315I mutation, Total, all dose groups, 16 evaluable subjects, as of August 24, 2023
[18] = PO 50 mg/kg single dose, 0.5 hr, individual rat, 50 mg/kg
[19] = PO 50 mg/kg single dose, 2 hr, individual rat, 50 mg/kg
[20] = PO 50 mg/kg single dose, 4 hr, individual rat, 50 mg/kg
[21] = PO 50 mg/kg single dose, 8 hr, individual rat, 50 mg/kg
[22] = PO 50 mg/kg single dose, 24 hr, individual rat, 50 mg/kg

O=C(Nc1ccc(OC(F)(F)Cl)cc1)c1cnc(N2CC[C@@H](F)C2)c(-c2cnccn2)c1 [Compound A, (R)-N-(4-(chlorodifluoromethoxy)phenyl)-6-(3-fluoropyrrolidin-1-yl)-5-(pyrazin-2-yl)nicotinamide]
CHR ([1]; CML-CP subjects with T315I mutation, all doses, 13 evaluable, as of August 24, 2023): 92.3% | CCyR [1, 3]: 56.3% | MCyR [1, 3]: 62.5% | MMR ([1]; CML-CP subjects with T315I mutation, all doses, 17 evaluable, as of August 24, 2023): 35.3% | CHR within 3 treatment cycles ([1]; CML-CP subjects with T315I mutation, 20 evaluable, as of June 2, 2024): 80% | median time to CCyR [1, 4]: 2.83 (2.76, 2.92) months | median time to MCyR [1, 4]: 2.81 (2.76, 2.83) months | median time to MMR [1, 4]: 2.81 (2.76, 3.68) months | 18-month cumulative incidence of CCyR [1, 5]: 69% | 18-month cumulative incidence of MCyR [1, 5]: 76% | 18-month cumulative incidence of MMR [1, 5]: 50% | CCyR [1, 6]: 0 n (%) | CHR [1, 6]: 0 n (%) | MCyR [1, 6]: 0 n (%) | MMR [1, 6]: 0 n (%) | CCyR [1, 7]: 1 (100) n (%) | CHR [1, 7]: 1 (100) n (%) | MCyR [1, 7]: 1 (100) n (%) | MMR [1, 7]: 0 n (%) | CCyR [1, 8]: 0 n (%) | CHR [1, 8]: 1 (100) n (%) | MCyR [1, 8]: 0 n (%) | MMR [1, 8]: 0 n (%) | CHR ([1]; CML-CP with T315I mutation, 40 mg QD, 0 evaluable subjects, as of August 24, 2023): 0 n (%) | CCyR [1, 9]: 2 (100) n (%) | MCyR [1, 9]: 2 (100) n (%) | MMR ([1]; CML-CP with T315I mutation, 40 mg QD, 3 evaluable subjects, as of August 24, 2023): 2 (66.7) n (%) | CHR ([1]; CML-CP with T315I mutation, 40 mg/day Total, 1 evaluable subject, as of August 24, 2023): 1 (100) n (%) | CCyR [1, 10]: 3 (100) n (%) | MCyR [1, 10]: 3 (100) n (%) | MMR ([1]; CML-CP with T315I mutation, 40 mg/day Total, 4 evaluable subjects, as of August 24, 2023): 2 (50.0) n (%) | CHR ([1]; CML-CP with T315I mutation, 80 mg BID, 0 evaluable subjects, as of August 24, 2023): 0 n (%) | CCyR [1, 11]: 1 (100) n (%) | MCyR [1, 11]: 1 (100) n (%) | MMR [1, 11]: 1 (100) n (%) | CCyR [1, 12]: 0 n (%) | CHR [1, 12]: 0 n (%) | MCyR [1, 12]: 0 n (%) | MMR [1, 12]: 0 n (%) | CCyR [1, 13]: 0 n (%) | CHR [1, 13]: 1 (100) n (%) | MCyR [1, 13]: 0 n (%) | MMR [1, 13]: 0 n (%) | CCyR [1, 14]: 1 (100) n (%) | CHR [1, 14]: 1 (100) n (%) | MCyR [1, 14]: 1 (100) n (%) | MMR [1, 14]: 1 (100) n (%) | CHR ([1]; CML-CP with T315I mutation, 160 mg/day Total, 1 evaluable subject, as of August 24, 2023): 1 (100) n (%) | CCyR [1, 15]: 2 (100) n (%) | MCyR [1, 15]: 2 (100) n (%) | MMR [1, 15]: 2 (100) n (%) | CCyR [1, 16]: 4 (40.0) n (%) | CHR [1, 16]: 9 (90.0) n (%) | MCyR [1, 16]: 5 (50.0) n (%) | MMR [1, 16]: 2 (20.0) n (%) | CHR ([1]; CML-CP with T315I mutation, Total, all dose groups, 13 evaluable subjects, as of August 24, 2023): 12 (92.3) n (%) | CCyR [1, 17]: 9 (56.3) n (%) | MCyR [1, 17]: 10 (62.5) n (%) | MMR ([1]; CML-CP with T315I mutation, Total, all dose groups, 17 evaluable subjects, as of August 24, 2023): 6 (35.3) n (%) | Brain Concentration (ng/g) Concentration [2, 18]: 302 ng/g and 381 ng/g | Brain/Blood Ratio Individual Value [2, 18]: 0.376 and 0.578 | Brain Concentration (ng/g) Concentration [2, 19]: 1360 ng/g and 1070 ng/g | Brain/Blood Ratio Individual Value [2, 19]: 0.410 and 0.502 | Brain Concentration (ng/g) Concentration [2, 20]: 1190 ng/g and 1310 ng/g | Brain/Blood Ratio Individual Value [2, 20]: 0.478 and 0.466 | Brain Concentration (ng/g) Concentration [2, 21]: 452 ng/g and 1700 ng/g and 994 ng/g | Brain/Blood Ratio Individual Value [2, 21]: 0.447 and 0.462 | Brain Concentration (ng/g) Concentration [2, 22]: 40.4 ng/g and 10.2 ng/g | Brain/Blood Ratio Individual Value [2, 22]: 0.488 and 0.990 | concentration at 0.5 h ([2]; male, SD, rat, brain, po, 50 mg/kg, PO 50 mg/kg single dose, 0.5 hr, individual rat, read-out: Brain Concentration (ng/g) Concentration): 415 ng/g | concentration at 0.5 h ([2]; male, SD, rat, brain, po, 50 mg/kg, PO 50 mg/kg single dose, 0.5 hr, mean of 3 rats, read-out: Brain Concentration (ng/g) Mean): 366 ng/g | concentration at 2 h ([2]; male, SD, rat, brain, po, 50 mg/kg, PO 50 mg/kg single dose, 2 hr, individual rat): 961 ng/g | concentration at 4 h ([2]; male, SD, rat, brain, po, 50 mg/kg, PO 50 mg/kg single dose, 4 hr, individual rat): 880 ng/g | concentration at 24 h ([2]; male, SD, rat, brain, po, 50 mg/kg, PO 50 mg/kg single dose, 24 hr, mean (one rat NA)): 16.9 ng/g | Kp at 0.5 h ([2]; male, SD, rat, brain/plasma, po, 50 mg/kg, PO 50 mg/kg single dose, 0.5 hr, individual rat): 0.624 | Kp at 2 h ([2]; male, SD, rat, brain/plasma, po, 50 mg/kg, PO 50 mg/kg single dose, 2 hr, individual rat): 0.439 | Kp at 4 h ([2]; male, SD, rat, brain/plasma, po, 50 mg/kg, PO 50 mg/kg single dose, 4 hr, individual rat): 0.374 | Kp at 8 h ([2]; male, SD, rat, brain/plasma, po, 50 mg/kg, PO 50 mg/kg single dose, 8 hr, individual rat): 0.511 | Kp ([2]; male, SD, rat, brain/plasma, po, 50 mg/kg, single oral dose 50 mg/kg, 0.5 to 24 hours, read-out: brain-to-plasma concentration ratio): 0.44 to 0.74 | Cmax ([2]; rat, brain, single oral dose 50 mg/kg): 1130 ng/g | AUC0-last in the brain ([2]; single oral dose 50 mg/kg): 16346 ng·h/g
